Measurements: US4183931A, “2-Ketoalkyl-4(3H)-quinazolinones” (Research Corporation, priority 1977, dated 1980)

Tests used:
[1] = literature; cited from earlier work
[2] = NINCDS rotorod ataxia test (minimal neurotoxicity); type: in vivo, mice
Procedure: (§1) 1. Neurological Activity Tests. The biological testing program is designed to evaluate the following four aspects of drug action: (1) the existence and specificity of anticonvulsant activity; (2) the toxicity, particularly to the central nervous system; and, if the results of (1) and (2) are favorable, (3) the potency and protective index, a comparison between toxic and effective dose and (4) the time course of activity. Compounds were evaluated for anticonvulsant activity in two seizure models, the maximal electroshock seizure (MES) test and the subcutaneous pentylenetetrazol (Metrazol) seizure threshold (scMet) test.
Central nervous system toxicity was evaluated in the rotorod ataxia test. This test is designed to detect minimal neurotoxicity. The animal is placed on a 1-inch diameter knurled plastic rod rotating at 6 rpm. Normal mice can remain indefinitely on a rod rotating at this speed. Neurological deficit is defined as the failure of the animal to remain on the rod for at least 1 minute. This test has a clear end-point, is quantifiable and correlates well with the clinical assessment of minimal toxicity.
(§2) Specific anticonvulsant evaluations performed by NINCDS using MES, scMet and Rotorod assays are presented in Tables III & IV for fourteen new compounds as well as several known compounds. Table III centers attention on 2-substituted-3-o-tolyl-4-(3H)-quinazolinones while Table IV includes the findings for various other 2,3-disubstituted-4(3H)-quinazolinones. As described earlier, the MES, scMet and Rotorod tests were performed one-half hour and four hours after administration of each compound. The tables identify the dosage level that elicited a positive result, such as protection against MES and scMet induced seizures, or loss of balance on the rotorod.
In the Secondary Evaluation, median effective doses (ED50) are determined in the MES, scMet and Rotorod assays using the procedures defined in Pharmacology, 95, 99-113 (1949). In addition, each compound's anticonvulsant activity and neurotoxicity over time are determined by measuring the effect of an intraperitoneally administered estimated median effective dose on maximal electroshock seizures and rotorod performance at intervals of 1/2, 1, 2, 3, 4, 6 and 8 hours.
(§3) Separate groups of animals are used for each time period. The times of peak toxic and anticonvulsant effect are taken from the resulting graph of percent of animals responding vs. time, and the determinations of median effective doses are performed at those times.

[3] = NINCDS Maximal Electroshock Seizure Test (MES); type: in vivo, mice; conditions: for minimal effective dose: read-out: MES: dosage level that elicited protection
Procedure: (§4) 1. Neurological Activity Tests. […] Compounds were evaluated for anticonvulsant activity in two seizure models, the maximal electroshock seizure (MES) test and the subcutaneous pentylenetetrazol (Metrazol) seizure threshold (scMet) test.
The Maximal Electroshock Seizure Test was performed according to the method described by Swinyard and coworkers,* wherein a drop of 0.9% saline is instilled in each eye prior to application of corneal electrodes. Seizures are elicited with a 50 Hz alternating current of 50 mA (5 to 7 times that necessary to elicit minimal electroshock seizures) delivered for 0.2 sec via corneal electrodes. This stimulus will produce a maximal seizure in all normal mice. The maximal seizure typically consists of a short period of initial tonic flexion and a prolonged period of hind limb tonic extension, followed by terminal clonus. The seizure lasts about 22 seconds. Abolition of the hind limb tonic extensor component of the seizure is defined as protection and indicates anticonvulsant activity in the test compound.
(§5) The ability of a compound to prevent maximal electroshock seizures is believed to correlate with its ability to prevent the spread of seizure discharge through neural tissue. Activity against maximal electroshock seizures is thought to indicate potential efficacy in the treatment of major motor (grand mal) seizures. […] Selective action in the test is believed to indicate potential efficacy against absence (petit mal) seizures.
(§6) As described earlier, the MES, scMet and Rotorod tests were performed one-half hour and four hours after administration of each compound.
(§7) In the Secondary Evaluation, median effective doses (ED50) are determined in the MES, scMet and Rotorod assays using the procedures defined in Pharmacology, 95, 99-113 (1949).
as §3

[4] = NINCDS Subcutaneous Pentylenetetrazol (Metrazol) Seizure Threshold Test (scMet); type: in vivo, mice; conditions: for minimal effective dose: sc, read-out: scMet: dosage level that elicited protection
Procedure: as §4
Subcutaneous Pentylenetetrazol (Metrazol) Seizure Threshold Test (scMet) produces threshold (clonic) seizures. Pentylenetetrazol is administered subcutaneously as a threshold 0.5% solution (in 0.9% sodium chloride) in a loose fold of skin on the back of the neck in a dose of 85 mg/kg. […] Metrazol is given 10 minutes before the beginning of the test to allow for the delay in onset of Metrazol action. The animal is observed for 30 minutes. Failure to observe even a threshold seizure (a single episode of clonic spasms at least 5 seconds in duration) is defined as protection and indicates anticonvulsant activity in the test compound. These two methods of seizure provocation reliably elicit well-characterizied seizure phenomena.
as §5, §6, §7, §3

[5] = NINCDS primary evaluation, overall classification; type: in vivo, mice; set-up: key to NINCDS Classification: III: did not exhibit activity in any of the 3 categories at dose levels of 300 mg/kg; conditions: primary evaluation
Procedure: as §1, §2

[6] = Neuropharmacological Profile (NPP): general CNS observational screen (depression, righting reflex, ataxia); conditions: i.p., mice, score 0-8
Procedure: Representative compounds according to the present invention were tested for central nervous system activity by Pharmakon Laboratories of Scranton, Pennsylvania. The battery of general observational procedures used is referred to herein as a Neuropharmacological Profile (NPP). Additionally, representative compounds were tested in the Anticonvulsant Screening Project of the National Institutes of Neurological and Communicative Disorders and Stroke (NINCDS) at the University of Utah under the direction of Dr. Ewart A. Swinyard.
(§8) The procedures for the determination of a neuropharmacological profile involved white male mice of the Carworth Farm Strain CF-1 weighing 18 to 22 grams. […] Intraperitoneal injections were administered in logarithmic progression and sequentially. The dose levels employed routinely were 10, 30, 100 and 300 mg/kg, using four male mice at each dose level. Since this test was conducted in a sequential manner, the first does administered was at 300 mg/kg. […] Approximately thirty-eight signs and symptoms of pharmacological activity can be identified.
(§9) The animals were observed continously for one hour and, if no signs of pharmacological or toxicological activity were present at the end of the first hour, they were intermittently checked for activity every fifteen minutes thereafter for two consecutive hours. […] The observation period began immediately following the injection and the animals were then continuously observed for three hours and intermittently checked thereafter for forty-eight hours. The animals were observed and signs and symptoms of pharmacological activity were recorded continuously until no further symptoms developed and until the symptoms that appeared were no longer present. […] In such instances, the animals were observed beyond this period until they returned to normal. Routinely, the number of animals alive at the end of the forty-eight hour observation period was recorded and the LD50 estimated.
The animals are free to move about for evaluation of spatial orientation, alertness and spontaneous motor activity.
(§10) Since this is a general CNS screening procedure, only peak effects were recorded. Certain measures of behavior and neurological deficit were scored in terms of intensity of effect, while most others were determined on an all or none basis. Thus, in scoring measures which were normally present, e.g., spontaneous activity and skin color, an increase in score from 4 to 8 was used to denote stimulation or enhancement of skin color, whereas a decrease in score from 4 to 0 indicated depression or cyanosis. For scoring measures normally absent, e.g., depression, righting reflex and ataxia, activity was reflected as an increase in score from 0 to 8. The 0 to 8 scale was rounded off so that the actual ratings are only 0, 2, 4, 6 and 8. The compounds were also evaluated for anticonvulsant activity by using the maximal electroshock seizure (MES) test. In the MES study, four mice were dosed intraperitoneally at 100 mg/kg and challenged thirty minutes later with 50 mA, 0.2 second duration of electroshock. A protection ratio (number of mice protected from tonic extension .div. number of mice tested) was then established.
At the termination of the test, the results were recorded and tabulated.
(§11) Scores for behavioral symptoms, including depression, righting reflex and ataxia, are the actual numbers reported. Protection against MES is reported as a percentage. Since four animals were involved in this test, the findings are 0% for none protected, 25% for one out of four, etc. […] In order to maintain reasonable uniformity in the reporting of results, each entry corresponds to a dosage level of 100 mg/kg. Any variations from that dosage are indicated.

[7] = NPP maximal electroshock seizure (MES) protection; type: in vivo, white male mice of the Carworth Farm Strain CF-1; conditions: Mus musculus, ip, 0.5 h; at 100 mg/kg i.p., four mice, 30 min after dosing
Procedure: as §8, §10, §11

[8] = NPP lethality (estimated LD50); conditions: mouse, in vivo, ip
Procedure: as §8, §9, §11

[9] = after 4 hr (value in parentheses)
[10] = Mus musculus, ip, after 4 hr (value in parentheses)
[11] = Mus musculus, after 4 hr (value in parentheses)
[12] = Mus musculus, ip, secondary evaluation, at time of peak effect

Row | SMILES | Rotorod: dosage level that elicited loss of balance ([2]; after 0.5 hr) [mg/kg] | Rotorod: dosage level that elicited loss of balance [2, 9] [mg/kg] | minimal effective dose ([3]; Mus musculus, ip, after 0.5 hr) [mg/kg] | minimal effective dose ([4]; Mus musculus, after 0.5 hr) [mg/kg] | minimal effective dose [4, 11] [mg/kg] | CNS Depression ([6]; at 100 mg/kg) | LD50 at 48 h [8] [mg/kg] | also measured
1 | Cc1ccccc1-n1c(C)nc2c(c1=O)CCCC2 | – | – | – | – | – | – | – | sedative-hypnotic / hypnotic / depressant activity (in words) [1]: lack of hypnotic activity
2 | Cc1ccccc1N1C(=O)c2ccccc2NC1C (stereo not drawn) [1,2-dihydro derivative] | – | – | – | – | – | – | – | sedative-hypnotic / hypnotic / depressant activity (in words) [1]: abolishes depressant activity
3 | CCN(CC)c1ccc(-n2c(C)nc3ccccc3c2=O)cc1 [2-methyl-3-(p-diethylaminophenyl)-4(3H)-quinazolinone] | – | – | – | – | – | – | – | sedative-hypnotic / hypnotic / depressant activity (in words) [1]: equal hypnotic activity to methaqualone
4 | CCc1nc2ccccc2c(=O)n1-c1ccccc1C [CH3, 2-Ethyl-3-o-tolyl-4(3H)-quinazolinone, reference compound] | 100 | 300 | 100 | 100 | 300 | – | – | minimal effective dose [3, 10]: 300 mg/kg
5 | Cc1ccccc1-n1c(CC(O)c2ccccc2)nc2ccccc2c1=O (stereo not drawn) [CHOHC6 H5, 2-(2-Hydroxy-2-phenylethyl)-3-o-tolyl-4(3H)-quinazolinone] | – | 300 | – | 300 | – | – | – | –
6 | Cc1ccccc1-n1c(CC(=O)c2ccc[n+](C)c2)nc2ccccc2c1=O [CO-3-C5 H4 N^+ CH3 I^-] | 100 | – | – | – | 30 | – | – | toxicity remark (footnote a to NINCDS classification) [5]: Extremely toxic; minimal effective dose [3, 10]: 100 mg/kg
7 | Cc1ccccc1-n1c(C)nc2cc(N)ccc2c1=O [H and 7-amino, reference compound] | 100 | 300 | 100 | 100 | 100 | – | – | toxicity remark (footnote a to NINCDS classification) [5]: Extremely toxic; minimal effective dose [3, 10]: 100 mg/kg
8 | Cc1ccccc1-n1c(CC(=O)c2ccncc2)nc2ccccc2c1=O [IIId, 2-[2-Oxo-2-(4-pyridyl)ethyl]-3-o-tolyl-4(3H)-quinazolinone] | – | – | 100 | 30 | 300 | 0 | > 562 | TD50 ([2]; mouse, in vivo, ip, secondary evaluation, at time of peak effect): 440 mg/kg; ED50 [3, 12]: 74 mg/kg; MES protective index compared with methaqualone ([3]; secondary evaluation): approximately five-fold higher; PI MES (Protective Index = TD50/ED50) ([3]; secondary evaluation): 5.94; potency against electroshock-induced (MES) seizures compared with methaqualone ([3]; secondary evaluation): less potent than methaqualone; Depression ([6]; at 300 mg/kg): 4; responders at 100 mg/kg [7]: 0%; ED50 [4, 12]: 75 mg/kg; PI scMet (Protective Index = TD50/ED50) ([4]; secondary evaluation): 5.86; potency against scMet seizures compared with methaqualone ([4]; secondary evaluation): less potent than methaqualone; scMet protective index compared with methaqualone ([4]; secondary evaluation): approximately five-fold higher
9 | Cc1ccccc1-n1c(CC(=O)c2ccc(NC(=O)C(F)(F)F)cc2)nc2ccccc2c1=O [IIIl, 2-[2-Oxo-2-(p-trifluoroacetamidophenyl)ethyl]-3-o-tolyl-4(3H)-quinazolinone] | 300 | – | – | 300 | – | – | – | –
10 | O=C(Cc1nc2ccccc2c(=O)n1-c1ccccc1Cl)C(F)(F)F [IVa, 2-(3,3,3-Trifluoroacetonyl)-3-o-chlorophenyl-4(3H)-quinazolinone] | 300 | 300 | – | – | – | 8 | 178 | NINCDS Classification [5]: III; CNS Depression ([6]; at 30 mg/kg (value in parentheses)): 6
11 | O=C(Cc1nc2ccccc2c(=O)n1-c1ccccc1Cl)c1cccnc1 [IVc, 2-[2-Oxo-2-(3-pyridyl)ethyl]-3-o-chlorophenyl-4(3H)-quinazolinone] | – | 300 | – | 300 | 300 | 4 | 562 | responders at 100 mg/kg [7]: 25%
12 | O=C(Cc1nc2ccccc2c(=O)n1-c1ccccc1)c1cccnc1 [IVg, 2-[2-Oxo-2-(3-pyridyl)ethyl]-3-phenyl-4(3H)-quinazolinone] | – | – | 100 | 100 | – | 2 | 562 | responders at 100 mg/kg [7]: 0%
